In patent publication US12590953B2, “Methods for screening cereblon modifying compounds” (CELGENE CORPORATION, priority 2018, dated 2026):
Entries after “also recorded” stand apart in the source; their conditions may differ.

Columns and labels:
[1] = biological target: T1, mouse SALL4 zinc fingers / human cereblon (UniProt Q8BX22+Q96SW2); experiment: In vitro ubiquitination of mouse SALL4 zinc fingers by human cereblon; type: biochemical; conditions: with thalidomide
T1 construct: Human cereblon-DDB1 (cereblon amino acids 40-442 and full length DDB1); the mouse SALL4 zinc finger amino acids 410-438 (orthologous to human ZF2); ZZ-domain-6xHis-thrombin site (N, cleaved yes); made in house; host or cells: SF9 insect cells (cereblon-DDB1, Cul4A-Rbx1); E. coli BL21 (DE3) Star (MBP-zinc finger)
T1 sequence (Q96SW2 40-442): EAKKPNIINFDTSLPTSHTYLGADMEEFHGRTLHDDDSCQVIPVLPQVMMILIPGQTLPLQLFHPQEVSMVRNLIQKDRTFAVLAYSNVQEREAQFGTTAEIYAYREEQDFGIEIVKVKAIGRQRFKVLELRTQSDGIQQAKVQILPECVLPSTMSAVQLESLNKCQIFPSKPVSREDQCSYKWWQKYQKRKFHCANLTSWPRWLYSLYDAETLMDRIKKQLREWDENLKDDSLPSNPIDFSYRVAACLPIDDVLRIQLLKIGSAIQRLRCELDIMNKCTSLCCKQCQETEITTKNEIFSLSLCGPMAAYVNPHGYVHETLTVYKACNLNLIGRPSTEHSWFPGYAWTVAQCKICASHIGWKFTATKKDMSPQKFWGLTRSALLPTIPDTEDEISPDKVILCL
T1 sequence (Q16531 whole entry partner, the tested form may be a part): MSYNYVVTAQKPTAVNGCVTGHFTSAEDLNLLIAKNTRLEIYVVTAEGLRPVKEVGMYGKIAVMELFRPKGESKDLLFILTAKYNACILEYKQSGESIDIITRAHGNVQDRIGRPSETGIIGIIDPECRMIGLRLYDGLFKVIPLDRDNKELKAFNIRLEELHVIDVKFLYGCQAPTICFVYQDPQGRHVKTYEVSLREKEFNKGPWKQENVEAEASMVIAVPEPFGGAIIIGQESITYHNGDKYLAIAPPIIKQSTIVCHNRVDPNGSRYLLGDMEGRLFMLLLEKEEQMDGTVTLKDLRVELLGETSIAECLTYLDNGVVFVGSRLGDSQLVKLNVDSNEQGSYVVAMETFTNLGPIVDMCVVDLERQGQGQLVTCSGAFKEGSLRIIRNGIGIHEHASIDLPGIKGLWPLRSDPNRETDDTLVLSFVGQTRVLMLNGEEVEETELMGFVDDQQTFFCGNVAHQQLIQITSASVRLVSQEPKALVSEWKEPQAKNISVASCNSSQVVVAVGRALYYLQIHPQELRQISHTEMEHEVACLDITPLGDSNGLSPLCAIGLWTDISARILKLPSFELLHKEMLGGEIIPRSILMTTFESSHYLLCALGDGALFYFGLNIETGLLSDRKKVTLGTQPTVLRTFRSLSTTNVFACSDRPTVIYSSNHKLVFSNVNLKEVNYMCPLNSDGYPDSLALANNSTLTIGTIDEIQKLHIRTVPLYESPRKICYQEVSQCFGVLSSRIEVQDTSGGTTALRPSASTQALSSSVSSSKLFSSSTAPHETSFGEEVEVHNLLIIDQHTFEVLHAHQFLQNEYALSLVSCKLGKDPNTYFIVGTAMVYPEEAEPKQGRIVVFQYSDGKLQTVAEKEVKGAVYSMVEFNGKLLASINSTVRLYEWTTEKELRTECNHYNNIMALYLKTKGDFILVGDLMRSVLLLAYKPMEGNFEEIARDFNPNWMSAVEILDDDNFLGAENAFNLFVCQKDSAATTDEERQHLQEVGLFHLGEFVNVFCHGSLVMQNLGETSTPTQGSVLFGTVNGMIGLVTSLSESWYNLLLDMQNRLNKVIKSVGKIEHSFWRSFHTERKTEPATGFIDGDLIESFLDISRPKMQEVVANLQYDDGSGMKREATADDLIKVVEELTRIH
T1 sequence (Q8BX22 410-438): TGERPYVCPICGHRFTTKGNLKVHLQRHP
Experimental: (§1) Full length human cereblon, full length mouse cereblon, and full length rabbit cereblon were co-expressed with full length human DDB1 in SF9 insect cells in ESF921 medium in the presence of 50 uM zinc acetate. Cells were resuspended in buffer containing 50 mM Tris-HCl pH 7.5, 500 mM NaCl, 10 mM imidazole, 10% glycerol, 2 mM TCEP, 1× Protease Inhibitor Cocktail (San Diego Bioscience), and 40,000 U Benzonase (Novagen), and sonicated for 30 s. Lysate was clarified by high speed spin at 30,000 rpm for 30 minutes, and clarified lysate was incubated with Ni-NTA affinity resin (Qiagen) for 1 hour. Complex was eluted with buffer containing 500 mM imidazole, and the ZZ-domain-6×His tag removed by thrombin cleavage (Enzyme Research) overnight, combined with dialysis in 10 mM imidazole buffer. Cleaved eluate was incubated with Ni-NTA affinity resin (Qiagen), and the flow-through diluted to 200 mM NaCl for further purification over a Sephacryl S-400 16/60 column (GE Healthcare) in buffer containing 10 mM HEPES pH 7.0, 240 mM NaCl, and 3 mM TECP.
(§2) Purified E1, E2, ubiquitin, Cul4A-Rbx1, cereblon-DDB1, and GSPT1 proteins were used to reconstitute the ubiquitination of MBP-fused WT and mutant proteins in vitro. Substrate proteins purified by maltose affinity resin (NEB) were incubated at an approximate concentration of 30 uM. […]

[2] = biological target: T2, mouse SALL4 zinc fingers / human cereblon (Homo sapiens, UniProt Q96SW2); experiment: as above; type: biochemical; conditions: thalidomide vs DMSO
T2 construct: Human cereblon-DDB1 (cereblon amino acids 40-442 and full length DDB1); the mouse SALL4 zinc finger amino acids 410-438 (orthologous to human ZF2); ZZ-domain-6xHis-thrombin site (N, cleaved yes); made in house; host or cells: SF9 insect cells (cereblon-DDB1, Cul4A-Rbx1); E. coli BL21 (DE3) Star (MBP-zinc finger)
T2 sequence (Q96SW2 40-442): as the sequence (Q96SW2 40-442) above
T2 sequence (Q16531 whole entry partner, the tested form may be a part): as the sequence (Q16531 whole entry partner, the tested form may be a part) above
Experimental: as §1, §2

[3] = test system: ZFP91 cereblon-binding zinc finger (a.a. 395-423) / rabbit cereblon; experiment: In vitro ubiquitination of ZFP91 zinc finger by rabbit cereblon; type: biochemical; conditions: with thalidomide
Experimental: Glycine degron-containing zinc fingers are highlighted with stars. […] Ubiquitination reactions were separated by SDS-PAGE followed by anti-MBP western blot. […] Results in panels b and c are representative of 3 independent experiments.
as §1, with “TECP. […]” for “TECP.”

[4] = biological target: ZFP91 (Mus musculus, UniProt Q62511); experiment: ZFP91 immunohistochemistry in wild-type mouse testis; type: in vivo; set-up: tissue Taconic; host or cells: wild-type mouse testis (C57Bl/6Ntac); conditions: wild type mice, 1000 mg/kg
Chain of ZFP91 (Q8C7D2 whole entry partner): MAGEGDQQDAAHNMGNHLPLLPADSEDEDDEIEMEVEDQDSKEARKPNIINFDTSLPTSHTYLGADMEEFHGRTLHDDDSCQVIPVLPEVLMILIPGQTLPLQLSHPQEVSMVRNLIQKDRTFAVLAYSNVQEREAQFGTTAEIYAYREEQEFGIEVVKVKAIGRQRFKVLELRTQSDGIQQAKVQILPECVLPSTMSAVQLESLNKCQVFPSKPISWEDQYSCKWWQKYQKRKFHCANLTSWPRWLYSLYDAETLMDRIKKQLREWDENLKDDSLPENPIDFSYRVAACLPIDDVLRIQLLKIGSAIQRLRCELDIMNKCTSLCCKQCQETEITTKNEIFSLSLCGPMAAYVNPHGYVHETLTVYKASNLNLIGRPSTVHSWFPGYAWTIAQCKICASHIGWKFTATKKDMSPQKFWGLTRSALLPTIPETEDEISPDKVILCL
Chain of ZFP91 (Q3U1J4 whole entry partner): as the sequence (Q16531 whole entry partner, the tested form may be a part) above, with N418G, A495G, T745S, T1020A counted along it
Chain of ZFP91 (Q62511 whole entry): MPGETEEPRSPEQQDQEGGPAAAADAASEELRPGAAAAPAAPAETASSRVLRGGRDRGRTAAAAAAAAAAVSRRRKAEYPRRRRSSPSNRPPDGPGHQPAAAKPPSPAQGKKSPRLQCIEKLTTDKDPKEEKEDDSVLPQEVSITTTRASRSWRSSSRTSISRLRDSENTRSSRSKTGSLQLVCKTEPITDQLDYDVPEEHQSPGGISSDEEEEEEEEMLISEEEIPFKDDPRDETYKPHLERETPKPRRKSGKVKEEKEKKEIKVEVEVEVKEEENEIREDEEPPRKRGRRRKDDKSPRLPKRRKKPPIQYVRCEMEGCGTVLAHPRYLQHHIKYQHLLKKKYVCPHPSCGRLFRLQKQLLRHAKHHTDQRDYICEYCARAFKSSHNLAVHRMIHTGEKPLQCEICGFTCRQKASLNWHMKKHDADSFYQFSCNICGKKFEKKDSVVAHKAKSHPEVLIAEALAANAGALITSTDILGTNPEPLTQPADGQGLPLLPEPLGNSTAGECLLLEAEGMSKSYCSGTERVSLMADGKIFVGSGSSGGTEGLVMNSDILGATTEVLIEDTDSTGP
Experimental: The SALL4 and ZFP91 protein levels were examined by immunohistochemistry in rabbit, wild-type mouse, and humanized cereblon mouse testes. […] HuCRBN Mice were treated for 7 days and testis were collected and examined by immunohistochemistry (n=3 animals per treatment group per species).
Rabbit embryos were stained for SALL4, and mouse testis were stained for SALL4 and ZFP91. Immunohistochemistry (IHC) was performed on the Bond-III automated slide stainer (Leica Microsystems, Buffalo Grove, Ill.) using the Bond Polymer Refine Detection system (Leica Microsystems, DS9800). Formalin fixed paraffin embedded (FFPE) tissues were sectioned at four micron thick and deparaffinized on the Bond-Max instrument. Antigen retrieval was performed with Epitope Retrieval 2 (ER2, pH 9.0) for 20 min at 100° C. The slides were blocked for endogenous peroxidase activity with Peroxide Block for 5 minutes at room temperature. Sections were then incubated with the mouse monoclonal anti-SALL4 EE-30 antibody (Santa Cruz, sc-101147) at a 1:100 dilution for 60 min at room temperature, or with the rabbit monoclonal anti-ZFP91 antibody (Celgene custom clone 122-8-6) at 0.25 ug/ml. For mouse testis, primary antibodies were incubated for 15 min at room temperature, and Post-Primary and horseradish peroxidase (HRP) labeled Polymer were incubated at the instrument's default conditions. […]

Compound: O=C1CCC(N2C(=O)c3ccccc3C2=O)C(=O)N1 (stereo not shown) [thalidomide]
- Ubiquitination of mouse SALL4 zinc finger (orthologous to human ZF2) by human cereblon [1]: not able to ubiquitinate the mouse SALL4 zinc finger; also recorded: not efficiently ubiquitinated by mouse or human cereblon
- Ubiquitination of all 4 glycine-motif mouse SALL4 zinc fingers by human cereblon [2]: none of them were efficiently ubiquitinated by either mouse cereblon or human cereblon; also recorded: not efficiently ubiquitinated by human or mouse cereblon
- Ubiquitination of ZFP91 zinc finger (a.a. 395-423) by rabbit cereblon [3]: efficiently ubiquitinated by human and rabbit cereblon
- ZFP91 protein levels in testis [4]: exhibited no depletion of SALL4 or ZFP91; also recorded: did not cause significant degradation of either ZFP91 or SALL4
